Here are results for one compound from patent publication US20260297060A1, “COMPOUNDS FOR THE DEGRADATION OF MUTANT BRAF” (C4 THERAPEUTICS, INC., priority 2023, published 2026).

The structures appear in SMILES notation.

In the assay the test system is A375 human melanoma xenografts. Put plainly: In vivo therapeutic efficacy in A375 human melanoma xenografts (tumor volume, T/C, TGI), Example 14. Set-up: species or system human tumor in female BALB/c nude mice. Conditions: for Tumor volume: 100 mg/kg p.o. QD x 21 days. As for the experimental part: Agents were tested in the A375 human melanoma xenografts. Compound 26 and Compound 141 were administered to BALB/c nude mice bearing A375 tumors from PG-DO and dosed via PO twice a day (BID) or third a day (TIP) or dosed P daily (QD) from PG-D. Dabrafenib was administered to BALB/c nude mice bearing A375 tumors from PG-D1 and dosed via P daily (QD). Compound 26 was dosed at 1.5 mg/kg (QD), 2 mg/kg (TID), 3 mg/kg (BID), 6 mg/kg (QD) and 10 mg/kg (BID) for 21 days. Compound 141 was dosed at 0.75 mg/kg (BID), 1 mg/kg (TID), 1.5 mg/kg (BID), 3 mg/kg (QD) and 5 mg/kg (BID) for 21 days. Dabrafenib was dosed at 100 mg/kg for 21 days. This study was non-GLP.
One hundred and thirty-eight female BALB/c nude Mus Musculus mice procured from Shanghai Lingchang Biological Science and Technology Co., LTD between the ages of six to eight weeks and with body weight between eighteen and twenty-two grams were used for the study. A spare mouse was also procured.
The A375 tumor cells were maintained in vitro in DMEM medium supplemented with 10% fetal bovine serum and 1% Penicillin-Streptomycin at 37° C. in an atmosphere of 5% CO2 in air. The tumor cells were routinely sub-cultured twice weekly. The cells growing in an exponential growth phase were harvested and counted for tumor inoculation.
Each mouse was inoculated subcutaneously at the right flank with A375 cells (5×10^6) in 0.2 mL of PBS supplemented with Matrigel (PBS: Matrigel=1:1) for tumor development. Animals were grouped for efficacy study on day 15 after tumor inoculation when the average tumor volume reached 220 mm^3. The test articles administration and the animal numbers in each group are shown in the above experimental Table 75.
At the time of routine monitoring, the animals were checked daily for any effects of tumor growth and treatments on normal behavior such as mobility, food and water consumption (by looking only), body weight gain/loss (body weights were measured twice weekly), eye/hair matting and any other abnormal effect as stated in the protocol. Death and observed clinical signs were recorded on the basis of the numbers of animals within each subset.
Prior to the onset of drug treatment, mice were measured for tumor size in two dimensions using a caliper, and the tumor volume (mm^3) was calculated using formula V=0.5 a×b^2 where a and b are the long and short diameters of the tumor in mm, respectively. Mice were randomized into different treatment groups based on the tumor volume.
The major endpoint was to see if the tumor growth could be delayed or mice could be cured. The tumor size was then used for calculations of T/C value. The T/C value (in percent) is an indication of antitumor effectiveness; T and C are the mean volumes of the treated and control groups, respectively on specified day.
TGI was calculated for each group using the formula: TGI (%)=[1−(Ti−T0)/(Ci−C0)]×100; Ti is the average tumor volume of a treatment group on a given day, T0 is the average tumor volume of the treatment group on the day of treatment start, Ci is the average tumor volume of the vehicle control group on the same day with Ti, and C0 is the average tumor volume of the vehicle group on the day of treatment start.
A one-way ANOVA followed by Dunnett's multiple comparison test was performed to compare tumor volume among vehicle group (Group 1) and treatment groups (Group 2-Group 12). All data were analyzed using GraphPad Prism, ns indicates p>0.05, * indicates p<0.05, ** indicates p<0.01, *** indicates p<0.001 and **** indicates p<0.0001.
Tumor growth inhibition of Compound 26, Compound 141 and dabrafenib in the treatment of female BALB/c nude mice bearing A375 xenografts was calculated based on tumor volume measured on […]. TGI and T/C were calculated respectively and the data are detailed in Table 82.
In general terms: A xenograft is tissue or cells of one species grown in another, often human tumour cells in immunodeficient mice.

Setting [1] is: 100 mg/kg, p.o., QD × 21 days, PG-D21.

The term T/C denotes the result in the treated group divided by that in the control group, in per cent. A word on the TGI: it is how far tumour growth fell short of that in controls. A higher TGI goes with a stronger effect on the tumour. With `CC(C)(C)c1nc(-c2cccc(NS(=O)(=O)c3c(F)cccc3F)c2F)c(-c2ccnc(N)n2)s1` [Dabrafenib, dabrafenib, reference compound], the Tumor volume is on record as 220 ± 15 mm^3 (day 0, mean ± SEM); 367 ± 24 mm^3 (day 4, mean ± SEM); 421 ± 28 mm^3 (day 7, mean ± SEM); 560 ± 38 mm^3 (day 11, mean ± SEM); 756 ± 54 mm^3 (day 14, mean ± SEM); 1031 ± 79 mm^3 (day 18, mean ± SEM). For the same compound, the Tumor volume (day 21, mean ± SEM) was found to be 1095 ± 86 mm^3; the Tumor volume (day 25 (dosing-free regrowth), mean ± SEM) is given as 1007 ± 137 mm^3; the Tumor volume (day 28 (dosing-free regrowth), mean ± SEM) is reported as 1366 ± 209 mm^3; the Tumor volume (day 32 (dosing-free regrowth), mean ± SEM) worked out at 1679 ± 323 mm^3; the Tumor volume (day 35 (dosing-free regrowth), mean ± SEM) stood at 1711 ± 245 mm^3; the Tumor volume (day 39 (dosing-free regrowth), mean ± SEM) was found to be 2116 ± 279 mm^3. Further, the Tumor volume by setting is: (day 42 (dosing-free regrowth), mean ± SEM) 2634 ± 337 mm^3; (day 46 (dosing-free regrowth), mean ± SEM) 2535 ± 321 mm^3; (day 49 (dosing-free regrowth), mean ± SEM) 3163 ± 478 mm^3; (day 53 (dosing-free regrowth)) 3001 mm^3. In addition, the “Tumor Size on PG-D21 (Mean ± SEM)” value (100 mg/kg p.o. QD × 21 days) is on record as 1095 ± 86 mm^3. Under setting [1], this compound showed a T/C of 58.1%. This compound also showed a TGI under setting [1] of 47.4%.
